Active and inactive are the calls of the source.

Experiment [1] deals with T1, Tyrosine-protein phosphatase non-receptor type 7 (Homo sapiens, UniProt P35236).
T1 sequence (P35236 whole entry): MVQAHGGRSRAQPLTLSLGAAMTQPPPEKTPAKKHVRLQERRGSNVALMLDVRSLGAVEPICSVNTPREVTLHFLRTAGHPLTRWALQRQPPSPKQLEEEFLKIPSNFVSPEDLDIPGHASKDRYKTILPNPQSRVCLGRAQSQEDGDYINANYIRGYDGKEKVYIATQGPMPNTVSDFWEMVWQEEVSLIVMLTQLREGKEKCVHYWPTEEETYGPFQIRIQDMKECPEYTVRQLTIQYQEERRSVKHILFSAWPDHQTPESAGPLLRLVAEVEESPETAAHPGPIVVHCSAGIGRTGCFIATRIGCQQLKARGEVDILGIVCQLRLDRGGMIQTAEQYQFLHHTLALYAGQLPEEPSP
As to the kind of experiment: redox-active compounds inhibiting HePTP phosphatase – biochemical, fluorescence, mechanism study (AID 2068). It counts as functional.

The target in experiment [2] is T2, Dual specificity protein phosphatase 6 (Rattus norvegicus, UniProt Q64346).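 Also: confirmatory in vitro dose-response testing of MKP-3 inhibition; recombinant His-tagged MKP-3 made in E. coli BL21 with OMFP substrate.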
T2 sequence (Q64346 whole entry): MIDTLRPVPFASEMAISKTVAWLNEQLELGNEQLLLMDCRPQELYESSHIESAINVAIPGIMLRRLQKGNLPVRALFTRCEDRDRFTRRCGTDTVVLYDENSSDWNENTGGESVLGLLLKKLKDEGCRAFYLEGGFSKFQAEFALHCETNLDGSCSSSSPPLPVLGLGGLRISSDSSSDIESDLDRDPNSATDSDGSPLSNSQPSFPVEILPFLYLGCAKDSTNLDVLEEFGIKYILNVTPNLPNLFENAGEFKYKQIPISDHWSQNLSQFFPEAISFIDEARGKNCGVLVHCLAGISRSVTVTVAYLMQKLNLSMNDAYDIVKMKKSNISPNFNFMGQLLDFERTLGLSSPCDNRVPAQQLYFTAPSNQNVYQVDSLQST
It counts as functional.

The target of experiment [3] is Trypsin (Sus scrofa, UniProt P00761). In words: trypsin protease activity blockade – biochemical, quenched peptide fluorescence, cherry-pick, selectivity assay for Rce1 protease inhibitor project, dose response (AID 488789).
In experiment [4] the target is CAAX prenyl protease 2 (Saccharomyces cerevisiae S288c, UniProt Q03530). Format: biochemical.
Experiment [5] can be described thus: cells. It counts as functional.
The target in experiment [6] is T3, fMet-Leu-Phe receptor (Homo sapiens, UniProt P21462).
T3 sequence (P21462 whole entry): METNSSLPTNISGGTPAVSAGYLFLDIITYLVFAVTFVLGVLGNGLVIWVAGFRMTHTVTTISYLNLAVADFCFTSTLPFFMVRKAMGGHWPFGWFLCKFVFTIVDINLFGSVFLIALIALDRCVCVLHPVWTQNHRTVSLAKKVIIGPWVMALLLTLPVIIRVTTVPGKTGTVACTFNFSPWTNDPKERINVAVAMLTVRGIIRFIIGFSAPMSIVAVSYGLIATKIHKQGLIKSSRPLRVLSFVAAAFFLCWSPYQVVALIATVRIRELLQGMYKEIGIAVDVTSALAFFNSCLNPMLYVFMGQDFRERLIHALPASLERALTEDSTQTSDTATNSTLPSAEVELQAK
In words: formyl peptide receptor binders – dose response (AID 519). It counts as functional.

In experiment [7] the target is DNA dC->dU-editing enzyme APOBEC-3A (Homo sapiens, UniProt P31941). In words: Dose Response confirmation of small molecule APOBEC3A DNA Deaminase Inhibitors via a fluorescence-based single-stranded DNA deaminase assay. [Related pubchem assays (depositor defined):AID493011, AID493024]. It counts as functional.
For experiment [8], the target named is Eukaryotic translation initiation factor 4E (Mus musculus, UniProt P63073). As to the kind of experiment: blockers of eIF4G binding by eIF4E – biochemical, TR-FRET, dose response (AID 855).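 Also: potency for disrupting eIF4E binding to eIF4GI seen as loss of FRET.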 Format: functional. In general terms: TR-FRET usually uses a lanthanide donor and a delayed reading to cut background.
Experiment [9] addresses DNA dC->dU-editing enzyme APOBEC-3G (Homo sapiens, UniProt Q9HC16). It counts as functional.
Experiment [10] concerns the target T4, Kappa-type opioid receptor (Homo sapiens, UniProt P41145). In words: kappa opioid receptor activation by imaging – image-based, set 3, SAR follow-up (AID 488833). It counts as functional.
Experiment [11] deals with Mu-type opioid receptor (Homo sapiens, UniProt P35372). As to the kind of experiment: SAR Analysis of Agonists of the MOR Receptor using an Image-Based Assay - Set 3. [Related pubchem assays (depositor defined):AID1777, AID1785, AID1786, AID1966, AID2133, AID2136, AID2284, AID2285, AID2352]. It counts as functional.
The target in experiment [12] is Delta-type opioid receptor (Homo sapiens, UniProt P41143). In words: SAR Analysis of Agonists of the DOR Receptor using an Image-Based Assay - Set 3. [Related pubchem assays (depositor defined):AID1777, AID1786]. It counts as functional.
For experiment [13], the target named is T4, Kappa-type opioid receptor. In words: SAR analysis of small molecule agonists of the kappa opioid receptor via a luminescent beta-arrestin assay - Set 3. [Related pubchem assays (depositor defined):AID1777, AID1785, AID1786, AID1966, AID2133, AID2136, AID2284, AID2500]. It counts as functional.
Experiment [14] addresses T5, Short transient receptor potential channel 4 (Mus musculus, UniProt Q9QUQ5).
T5 sequence (Q9QUQ5 whole entry): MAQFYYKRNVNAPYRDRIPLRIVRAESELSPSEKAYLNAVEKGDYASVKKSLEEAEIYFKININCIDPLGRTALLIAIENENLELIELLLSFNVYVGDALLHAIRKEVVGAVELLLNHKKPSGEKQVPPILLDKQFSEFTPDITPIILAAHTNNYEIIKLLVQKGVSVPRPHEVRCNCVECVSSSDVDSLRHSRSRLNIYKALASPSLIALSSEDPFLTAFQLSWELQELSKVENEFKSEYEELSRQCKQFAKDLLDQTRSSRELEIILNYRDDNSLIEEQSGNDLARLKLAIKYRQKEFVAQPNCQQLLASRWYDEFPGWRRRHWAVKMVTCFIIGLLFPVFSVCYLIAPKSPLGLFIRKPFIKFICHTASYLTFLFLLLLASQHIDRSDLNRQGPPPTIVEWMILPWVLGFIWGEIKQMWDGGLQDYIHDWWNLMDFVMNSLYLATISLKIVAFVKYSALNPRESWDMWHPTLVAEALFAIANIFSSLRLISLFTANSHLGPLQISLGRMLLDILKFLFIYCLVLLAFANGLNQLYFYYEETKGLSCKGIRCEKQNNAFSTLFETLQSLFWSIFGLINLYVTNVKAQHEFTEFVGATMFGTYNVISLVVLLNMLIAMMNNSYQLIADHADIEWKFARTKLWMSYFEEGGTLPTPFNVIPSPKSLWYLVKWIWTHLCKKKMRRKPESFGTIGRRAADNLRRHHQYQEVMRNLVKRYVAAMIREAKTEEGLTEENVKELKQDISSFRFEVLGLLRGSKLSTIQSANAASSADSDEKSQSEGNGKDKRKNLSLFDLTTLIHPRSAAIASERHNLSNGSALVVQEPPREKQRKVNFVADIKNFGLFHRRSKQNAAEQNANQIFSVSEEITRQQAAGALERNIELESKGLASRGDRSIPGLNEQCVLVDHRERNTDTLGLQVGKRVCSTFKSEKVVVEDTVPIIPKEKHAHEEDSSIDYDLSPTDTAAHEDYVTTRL
As to the kind of experiment: potentiation of DAMGO-evoked TRPC4 calcium signal – cell-based, HEK293 TRPC4/mu-opioid, Fluo-4 calcium, EC20 DAMGO, dose response (AID 434941).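 Also: HEK293 cells coexpressing TRPC4 and mu opioid receptor stimulated by EC20 DAMGO.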 It counts as functional.

Experiment [15] concerns the target G-protein coupled receptor 35 (Homo sapiens, UniProt Q9HC97). As to the kind of experiment: inhibition of zaprinast-stimulated GPR35 beta-arrestin translocation – imaging, U2OS, beta-arrestin-GFP, zaprinast agonist, primary screen (AID 2058).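 Also: antagonist potency meaning inhibition of agonist-induced arrestin redistribution.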 Format: functional.
The target in experiment [16] is G-protein coupled receptor 55 (Homo sapiens, UniProt Q9Y2T6). As to the kind of experiment: inhibition of LPI-stimulated GPR55 beta-arrestin translocation – imaging, U2OS, beta-arrestin-GFP, LPI agonist, primary screen (AID 2013).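 Also: antagonist potency measured as reduced agonist-driven arrestin aggregation.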 Format: functional.
Experiment [17] addresses Large T antigen (Simian virus 40, UniProt P03070). It counts as functional, Betapolyomavirus macacae.
The target of experiment [18] is Nonstructural protein 1 (Influenza A virus, UniProt Q194T2). Format: functional, Influenza A virus (A/California/07/2009(H1N1)).
Experiment [19] addresses T6, Endoribonuclease toxin MazF (Escherichia coli K-12, UniProt P0AE70).
T6 sequence (P0AE70 whole entry): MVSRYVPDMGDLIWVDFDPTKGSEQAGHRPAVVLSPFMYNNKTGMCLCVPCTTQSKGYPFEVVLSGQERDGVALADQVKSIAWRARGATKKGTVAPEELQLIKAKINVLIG
In words: activation of MazEF endoribonuclease cleavage – biochemical, fluorescence, single-stranded RNA substrate, uHTS hits, dose response (AID 588481). It counts as functional.

Experiment [20] addresses T6, Endoribonuclease toxin MazF. In words: substrate-only fluorescence increase artefacts – biochemical, single-stranded RNase substrate, counter-screen for MazEF activator project, dose response (AID 588502). It counts as functional. (In general: A counterscreen serves to expose hits that act by an unwanted route or on another target.)
The nature of experiment [21]: A Cell Based Secondary Assay To Explore Cytotoxicity of Compounds that Sensitize Mycobacterium Tuberculosis to Beta-Lactam Antibiotics. Format: functional.

T4 sequence (P41145 whole entry): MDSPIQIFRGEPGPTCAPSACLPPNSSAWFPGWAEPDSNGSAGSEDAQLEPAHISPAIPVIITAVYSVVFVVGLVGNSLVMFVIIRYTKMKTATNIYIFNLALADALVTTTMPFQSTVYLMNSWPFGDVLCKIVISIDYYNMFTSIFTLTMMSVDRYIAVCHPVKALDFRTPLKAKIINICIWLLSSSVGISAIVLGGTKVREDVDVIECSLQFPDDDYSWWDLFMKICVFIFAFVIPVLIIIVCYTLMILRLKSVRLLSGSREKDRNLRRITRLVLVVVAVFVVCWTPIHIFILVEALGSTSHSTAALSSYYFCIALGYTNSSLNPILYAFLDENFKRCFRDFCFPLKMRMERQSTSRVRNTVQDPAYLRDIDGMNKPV
Sequence of Delta-type opioid receptor (P41143 whole entry): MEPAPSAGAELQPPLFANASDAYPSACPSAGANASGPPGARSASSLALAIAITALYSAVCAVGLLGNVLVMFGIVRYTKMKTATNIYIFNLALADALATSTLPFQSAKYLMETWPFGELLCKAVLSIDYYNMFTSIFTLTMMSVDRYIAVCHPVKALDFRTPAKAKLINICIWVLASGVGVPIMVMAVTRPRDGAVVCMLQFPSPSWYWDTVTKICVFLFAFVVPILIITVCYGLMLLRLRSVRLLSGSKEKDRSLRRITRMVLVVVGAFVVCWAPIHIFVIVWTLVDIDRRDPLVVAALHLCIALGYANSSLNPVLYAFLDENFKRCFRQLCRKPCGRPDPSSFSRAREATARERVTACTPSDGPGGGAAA
Sequence of Trypsin (P00761 whole entry): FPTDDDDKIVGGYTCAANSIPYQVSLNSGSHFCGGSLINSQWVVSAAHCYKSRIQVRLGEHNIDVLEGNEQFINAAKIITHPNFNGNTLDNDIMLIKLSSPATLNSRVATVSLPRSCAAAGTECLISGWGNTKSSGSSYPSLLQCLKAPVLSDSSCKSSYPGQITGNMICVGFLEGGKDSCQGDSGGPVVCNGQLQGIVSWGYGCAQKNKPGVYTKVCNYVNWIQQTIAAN
Sequence of CAAX prenyl protease 2 (Q03530 whole entry): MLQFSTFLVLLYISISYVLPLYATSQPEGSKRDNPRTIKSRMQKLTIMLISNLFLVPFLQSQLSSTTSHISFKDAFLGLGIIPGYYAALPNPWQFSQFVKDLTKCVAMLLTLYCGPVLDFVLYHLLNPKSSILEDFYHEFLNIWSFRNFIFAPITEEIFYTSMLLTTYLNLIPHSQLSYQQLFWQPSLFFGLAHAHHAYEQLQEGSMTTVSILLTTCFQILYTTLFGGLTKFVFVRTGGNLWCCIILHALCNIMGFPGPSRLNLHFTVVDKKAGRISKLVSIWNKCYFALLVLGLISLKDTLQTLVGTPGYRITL
Sequence of Mu-type opioid receptor (P35372 whole entry): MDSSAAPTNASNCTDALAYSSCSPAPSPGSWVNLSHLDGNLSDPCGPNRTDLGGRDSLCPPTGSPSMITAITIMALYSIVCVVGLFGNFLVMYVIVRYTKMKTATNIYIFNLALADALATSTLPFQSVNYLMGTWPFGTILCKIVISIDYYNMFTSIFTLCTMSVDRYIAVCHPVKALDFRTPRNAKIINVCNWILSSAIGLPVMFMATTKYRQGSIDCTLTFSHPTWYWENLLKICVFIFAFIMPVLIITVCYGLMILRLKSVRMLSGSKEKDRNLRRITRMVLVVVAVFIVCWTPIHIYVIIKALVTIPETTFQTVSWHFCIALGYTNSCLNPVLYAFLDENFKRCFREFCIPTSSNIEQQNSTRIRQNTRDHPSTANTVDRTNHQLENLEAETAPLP
Sequence of Nonstructural protein 1 (Q194T2 whole entry): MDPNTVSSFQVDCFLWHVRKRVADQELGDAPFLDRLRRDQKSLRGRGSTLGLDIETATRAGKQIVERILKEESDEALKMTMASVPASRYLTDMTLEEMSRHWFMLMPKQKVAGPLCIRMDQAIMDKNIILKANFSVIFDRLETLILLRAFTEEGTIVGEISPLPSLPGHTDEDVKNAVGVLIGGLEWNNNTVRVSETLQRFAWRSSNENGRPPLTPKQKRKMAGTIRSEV
Sequence of Large T antigen (P03070 whole entry): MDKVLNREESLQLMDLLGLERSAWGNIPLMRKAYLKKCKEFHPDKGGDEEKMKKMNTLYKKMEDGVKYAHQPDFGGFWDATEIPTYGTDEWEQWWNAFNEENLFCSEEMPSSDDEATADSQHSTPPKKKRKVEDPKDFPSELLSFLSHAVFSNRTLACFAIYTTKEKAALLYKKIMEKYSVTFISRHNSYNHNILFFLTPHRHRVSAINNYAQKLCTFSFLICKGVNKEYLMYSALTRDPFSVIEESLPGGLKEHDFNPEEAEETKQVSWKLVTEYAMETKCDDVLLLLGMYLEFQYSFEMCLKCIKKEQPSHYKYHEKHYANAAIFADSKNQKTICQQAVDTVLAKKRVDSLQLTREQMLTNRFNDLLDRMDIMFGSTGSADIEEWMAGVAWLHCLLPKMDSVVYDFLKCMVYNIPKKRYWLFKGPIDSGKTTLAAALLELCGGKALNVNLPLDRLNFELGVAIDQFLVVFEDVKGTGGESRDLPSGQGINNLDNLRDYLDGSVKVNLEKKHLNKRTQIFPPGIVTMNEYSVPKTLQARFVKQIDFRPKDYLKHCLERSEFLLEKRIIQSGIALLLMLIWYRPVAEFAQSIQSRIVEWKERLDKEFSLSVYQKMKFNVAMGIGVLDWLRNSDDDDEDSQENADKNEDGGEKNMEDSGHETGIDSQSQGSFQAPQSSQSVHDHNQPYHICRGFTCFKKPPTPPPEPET
Sequence of DNA dC->dU-editing enzyme APOBEC-3G (Q9HC16 whole entry): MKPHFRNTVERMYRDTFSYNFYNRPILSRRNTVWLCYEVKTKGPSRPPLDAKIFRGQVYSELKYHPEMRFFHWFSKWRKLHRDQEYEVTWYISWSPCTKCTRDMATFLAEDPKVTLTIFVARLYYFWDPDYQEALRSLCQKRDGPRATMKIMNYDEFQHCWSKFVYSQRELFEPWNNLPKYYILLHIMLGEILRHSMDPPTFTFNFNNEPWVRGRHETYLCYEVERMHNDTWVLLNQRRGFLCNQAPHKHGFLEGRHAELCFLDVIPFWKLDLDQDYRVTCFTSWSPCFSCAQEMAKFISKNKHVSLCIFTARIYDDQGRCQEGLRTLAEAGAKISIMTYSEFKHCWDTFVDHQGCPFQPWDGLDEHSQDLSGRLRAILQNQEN
Sequence of G-protein coupled receptor 35 (Q9HC97 whole entry): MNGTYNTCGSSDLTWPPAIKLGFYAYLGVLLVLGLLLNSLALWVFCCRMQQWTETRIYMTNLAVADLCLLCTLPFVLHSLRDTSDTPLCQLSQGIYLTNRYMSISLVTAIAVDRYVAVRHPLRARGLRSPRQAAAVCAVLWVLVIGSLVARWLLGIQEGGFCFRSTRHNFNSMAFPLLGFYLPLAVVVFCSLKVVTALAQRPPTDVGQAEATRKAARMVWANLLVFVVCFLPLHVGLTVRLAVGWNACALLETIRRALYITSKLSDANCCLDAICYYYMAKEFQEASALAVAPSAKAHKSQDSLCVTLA
Sequence of Eukaryotic translation initiation factor 4E (P63073 whole entry): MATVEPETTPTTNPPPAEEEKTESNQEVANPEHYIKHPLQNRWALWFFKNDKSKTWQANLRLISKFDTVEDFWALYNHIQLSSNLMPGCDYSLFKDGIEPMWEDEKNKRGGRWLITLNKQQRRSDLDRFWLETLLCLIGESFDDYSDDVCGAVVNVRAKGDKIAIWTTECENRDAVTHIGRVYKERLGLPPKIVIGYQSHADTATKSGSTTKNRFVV
Sequence of DNA dC->dU-editing enzyme APOBEC-3A (P31941 whole entry): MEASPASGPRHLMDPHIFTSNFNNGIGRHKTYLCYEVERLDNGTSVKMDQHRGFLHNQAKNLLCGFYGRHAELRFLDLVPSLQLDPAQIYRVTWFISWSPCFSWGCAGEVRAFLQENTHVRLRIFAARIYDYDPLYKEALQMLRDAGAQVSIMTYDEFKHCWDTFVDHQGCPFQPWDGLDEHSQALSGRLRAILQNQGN
Sequence of G-protein coupled receptor 55 (Q9Y2T6 whole entry): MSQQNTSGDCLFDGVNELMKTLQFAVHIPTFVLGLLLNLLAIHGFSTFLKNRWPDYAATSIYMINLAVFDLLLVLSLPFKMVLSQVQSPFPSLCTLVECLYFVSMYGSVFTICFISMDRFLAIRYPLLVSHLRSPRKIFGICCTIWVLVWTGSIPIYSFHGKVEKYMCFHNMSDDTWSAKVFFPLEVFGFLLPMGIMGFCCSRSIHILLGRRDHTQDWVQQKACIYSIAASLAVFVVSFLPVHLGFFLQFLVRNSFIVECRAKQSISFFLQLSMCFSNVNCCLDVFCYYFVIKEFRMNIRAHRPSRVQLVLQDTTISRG

Turning to `CCN1CCN(C(=S)c2ccc(O)c(OC)c2)CC1`, the values for the IC50 in experiment [1] and in [2] were 74.5 µM (active) and > 100 µM (inactive), respectively.
Turning to `CCCc1cc(O)n2nc(C)c(-c3ccccc3)c2n1`, the figures for the AC50 in experiment [3] and in experiment [4] were 5.36 µM (active) and 22.3 µM (active), respectively. In [5], the IC50 is 46.5 µM (active). For the same compound, in experiment [6], the Ki was > 66.7 µM (inactive).
Take `COc1ccc2cc(C(=O)C3CCCN(C(=O)CCc4cnn(C)c4)C3)ccc2c1` (stereo not drawn): the AC50 in [3] is 11.5 µM (active); in experiment [4], 19.5 µM (active).
For `O=C(C[n+]1c2n(c3ccc(C(F)(F)F)cc31)CCCCC2)Nc1ccccc1`, the IC50 is 2.76 µM (active) in experiment [7], > 64 µM (inactive) in experiment [8] and 3.79 µM (active) in experiment [9].
In the case of `Cc1c(CSc2nnc(-c3ccccn3)n2Cc2cccs2)cccc1[N+](=O)[O-]`, the EC50 in [10] is 4.15 µM (active); in experiment [11], > 32 µM (inactive); in experiment [12] it was > 32 µM (inactive); in experiment [13], 5.82 µM (active).
For the compound `CCN1CCN(Cc2cc(Br)ccc2O)CC1`, the EC50 in experiment [14] was 0.21 µM (active).
With `CN(C)/C=C/C=C/C=C/C1=[N+](C)c2ccccc2C1(C)C`, the 50% inhibitory concentration (IC50) in experiment [15] is 1.82 µM (active); in experiment [16], 2.05 µM (active); in experiment [17], 27.8 µM (active); in experiment [18], 5.75 µM (active). Besides, the EC50 in experiment [19] was > 99 µM (inactive); in experiment [20] it was 89.5 µM (inactive).
Take `Cc1cccc(Cn2c(N3CCN(c4ccccc4)CC3)nc3c2c(=O)n(C)c(=O)n3C)c1`: the CC50 in experiment [21] was > 40 µM (active). The EC50 in experiment [14] is 0.84 µM (active).
As to `Cc1ccccc1CSc1nnc(-c2ccccn2)n1Cc1ccco1`, the EC50 in [10] was 28.7 µM (inactive); in experiment [11], > 32 µM (inactive); in [12], > 64 µM (inactive); in experiment [13], 17.7 µM (inactive).

One may read the IC50 as the concentration that inhibits the measured activity by half. The term AC50 denotes the concentration giving half of the maximal activity seen. As a reminder, the Ki is the equilibrium dissociation constant of an inhibitor or competing ligand from its target. A word on the EC50: it is the concentration needed to bring the measured effect to its halfway point. As usually defined, the CC50 is the concentration that lowers cell viability or growth by half.
